Data from patent US5229368A, “Composition for prevention and (or) treatment of Aids” (Fujisawa Pharmaceutical Co., Ltd., priority 1987, dated 1993).

Tests used:
Friend leukemia virus [1] = assay: Test 1: splenomegaly by Friend leukemia virus in mice (severe infection); type: in vivo, C3H/HeN mice
Method: (§1) Animals: Male C3H/HeN strain mice aged 5 weeks were used in groups of 10. The animals were housed in an isolation room at 21°-25° C. and supplied with food and water at libitum.
Virus and Induction of splenomegaly: Friend leukemia virus (FLV) was prepared as a 10% suspension of infected C3H/HeN spleen in Hank's balanced saline and was originally supplied by Kitazato University. Following centrifugation (7,000 rpm for 20 mins.) the virus preparation was frozen and stored at -70° C. 0.2 ml/head of FLV diluted 2-, 5-, or 10-fold to induce infection of varying severity was challenged intraperitoneally in mice. […]

Friend leukemia virus [2] = assay: Test 3: survival rate of mice in lethal FLV infection; type: in vivo; settings: 42 days
Method: Friend leukemia virus FLV) was prepared as a 20% suspension of infected C3H/HeN spleen in Hank's balanced saline and 0.2 ml/head of the FLV preparation was challenged intraperitoneally to mice in groups of 12. The viruses were challenged in amounts large enough to cause death within a short time.
FK-565 (1, 0.01 mg/kg) was given intravenously once a day on days 1, 4, 7, 11, 14, 18, 21 and 25 (total: 8 doses).
The mice were given the two drugs according to the same dosing schedules.

[3] = tested on: Rauscher murine leukemia virus complex(RLV); settings: mice infected with RLV; cited from earlier work
[4] = therapeutic dose of AZT; cited from earlier work
Friend leukemia virus [5] = assay: Test 2: splenomegaly by FLV in mice, same method as Test 1 with other doses; type: in vivo, C3H/HeN mice; settings: day 14
Method: as §1
Virus and Induction of splenomegaly: Friend leukemia virus (FLV) was prepared as a 10% suspension of infected C3H/HeN spleen in Hank's balanced saline and was originally supplied by Kitazato University. Following centrifugation (7,000 rpm for 20 mins.) the virus preparation was frozen and stored at -70° C. 0.2 ml/head of FLV diluted 2-, 5-, or 10-fold to induce infection of varying severity was challenged intraperitoneally in mice.
Dosing schedules: FK-565 was given intravenously or orally in doses of 0.01 mg/kg to 1 mg/kg 4 hours after challenge and once on days 3, 7, 11 (total 4 doses).

[6] = FK-565 0.01 mg/kg i.v. alone, day 14
[7] = FK-565 0.1 mg/kg i.v. alone, day 14
[8] = FK-565 0.1 mg/kg p.o. alone, day 14
[9] = FK-565 0.01 mg/kg i.v., AZT 0 mg/kg
[10] = FK-565 1 mg/kg i.v., AZT 0 mg/kg

Question: For `Cc1cn([C@H]2C[C@H](N=[N+]=[N-])[C@@H](CO)O2)c(=O)[nH]c1=O` [AZT, 3'-Azido-3'-deoxythymidine], which Inhibition % (Friend leukemia virus [1]; AZT 5 mg/kg i.p. alone, day 14) is on record?
Answer: Its Inhibition % is 24.8%.

Question: And the Spleen weight (Friend leukemia virus [1]; AZT 5 mg/kg i.p. alone, day 14)?
Answer: Its Spleen weight is 1107.8 ± 158.3 mg.

Question: And the Spleen weight (Friend leukemia virus [1]; AZT 20 mg/kg i.p. alone, 27 doses, FLV 2-fold dilution, 14 days after infection)?
Answer: Its Spleen weight is 944.0 ± 104.9 mg.

Question: And the Inhibition % (Friend leukemia virus [1]; AZT 20 mg/kg i.p. alone, day 14)?
Answer: Its Inhibition % is 38.1%.

Question: And the survival rate (Friend leukemia virus [2]; AZT 4 mg/kg/time i.p., FK-565 0)?
Answer: The survival rate was 0.

Question: What about the survival rate (Friend leukemia virus [2]; AZT 20 mg/kg/time i.p., FK-565 0) of the same compound?
Answer: The survival rate was 25.

Question: And the survival rate (Friend leukemia virus [2]; AZT 100 mg/kg/time i.p., FK-565 0)?
Answer: Its survival rate is 50.

Question: What about the “survival time in infected mice” value [3] of the same compound?
Answer: Its value is “prolong significantly the survival time”.

Question: What about the side effects [4] of the same compound?
Answer: Its side effects is “anemia, leukopenia, neutropenia and occasional thrombocytopenia”.

Question: What about the “(%) inhibition of splenomegaly” value (Friend leukemia virus [5]; AZT 0.63 mg/kg i.p. alone) of the same compound?
Answer: Its value is 33.3%.

Question: And the Spleen (Friend leukemia virus [5]; AZT 0.63 mg/kg i.p. alone)?
Answer: The Spleen was 633 ± 67.6 mg.

Question: And the “(%) inhibition of splenomegaly” value (Friend leukemia virus [5]; AZT 2.5 mg/kg i.p. alone)?
Answer: Its value is 38.3%.

Question: What about the Spleen (Friend leukemia virus [5]; AZT 2.5 mg/kg i.p. alone) of the same compound?
Answer: Its Spleen is 605 ± 134.9 mg.

Question: What about the “(%) inhibition of splenomegaly” value (Friend leukemia virus [5]; AZT 10 mg/kg i.p. alone) of the same compound?
Answer: The value was 49.3%.

Question: And the Spleen (Friend leukemia virus [5]; AZT 10 mg/kg i.p. alone)?
Answer: The Spleen was 519 ± 130.6 mg.

Question: What about the “(%) inhibition of splenomegaly” value (Friend leukemia virus [5]; AZT 40 mg/kg i.p. alone) of the same compound?
Answer: The value was 81.1%.

Question: What about the Spleen (Friend leukemia virus [5]; AZT 40 mg/kg i.p. alone) of the same compound?
Answer: Its Spleen is 267 ± 51.6 mg.

Question: And the “(%) inhibition of splenomegaly” value (Friend leukemia virus [5]; AZT 160 mg/kg i.p. alone)?
Answer: Its value is 97.4%.

Question: Which Inhibition % (Friend leukemia virus [1]; [6]) does the source give for `CCCCCCC(=O)N[C@H](CCC(=O)N[C@@H](CCC[C@@H](N)C(=O)O)C(=O)N[C@H](C)C(=O)O)C(=O)O` [FK-565] here?
Answer: The Inhibition % was 36.4%.

Question: And the Spleen weight (Friend leukemia virus [1]; [6])?
Answer: Its Spleen weight is 1047.0 ± 106.1 mg.

Question: What about the Inhibition % (Friend leukemia virus [1]; [7]) of the same compound?
Answer: Its Inhibition % is 37.0%.

Question: And the Spleen weight (Friend leukemia virus [1]; [7])?
Answer: The Spleen weight was 1038.0 ± 176.8 mg.

Question: And the Inhibition % (Friend leukemia virus [1]; [8])?
Answer: Its Inhibition % is 27.8%.

Question: And the Spleen weight (Friend leukemia virus [1]; [8])?
Answer: Its Spleen weight is 1133.0 ± 170.0 mg.

Question: And the Spleen weight (Friend leukemia virus [1]; FK-565 1 mg/kg i.v. alone, 4 doses, day 14)?
Answer: Its Spleen weight is 947.0 ± 124.1 mg.

Question: What about the Inhibition % (Friend leukemia virus [1]; FK-565 1 mg/kg i.v. alone, day 14) of the same compound?
Answer: The Inhibition % was 46.5%.

Question: What about the Spleen weight (Friend leukemia virus [1]; FK-565 1 mg/kg p.o. alone, 4 doses, day 14) of the same compound?
Answer: The Spleen weight was 984.0 ± 144.8 mg.

Question: What about the Inhibition % (Friend leukemia virus [1]; FK-565 1 mg/kg p.o. alone, day 14) of the same compound?
Answer: The Inhibition % was 38.9%.

Question: And the survival rate (Friend leukemia virus [2]; FK-565 0.01 mg/kg/time i.v., AZT 0)?
Answer: The survival rate was 8.

Question: And the survival rate (Friend leukemia virus [2]; FK-565 1 mg/kg/time i.v., AZT 0)?
Answer: The survival rate was 17.

Question: And the “(%) inhibition of splenomegaly” value (Friend leukemia virus [5]; [9])?
Answer: Its value is 19.6%.

Question: And the Spleen (Friend leukemia virus [5]; [9])?
Answer: The Spleen was 750 ± 119.0 mg.

Question: What about the “(%) inhibition of splenomegaly” value (Friend leukemia virus [5]; [10]) of the same compound?
Answer: Its value is 55.3%.

Question: What about the Spleen (Friend leukemia virus [5]; [10]) of the same compound?
Answer: The Spleen was 487 ± 47.3 mg.
